Test results published in publication PMC7561186, “Rational design of balanced dual-targeting antibiotics with limited resistance” (PLoS Biology, 2020).
Values joined by “and” are separate entries in the source; they are usually repeats but may differ in a detail not shown here. Equal entries are not always repeated. Where two headings read alike, the source gives them in different places.

Legend:
[1] = test system: S. aureus USA300 (MRSA) BAA1556, S. aureus (VRSA) ECL2963646, S. aureus Mu50 (VISA) ATCC 700699; experiment: S. aureus dermal infection model; assay type: in vivo, ICR mice; settings: for Log CFU/Skin: 2% treatment, individual animals; for antibacterial activity after topical application: mouse skin infection, ointment twice daily, MRSA, VISA, VRSA, comparable to mupirocin, in words
Description: The testing strains, S. aureus USA300 (MRSA) BAA1556, S. aureus (VRSA) ECL2963646, and S. aureus Mu50 (VISA) ATCC 700699 were obtained from frozen stocks and thawed at room temperature. Next, an aliquot of 0.2 mL from each stock was transferred to 20 mL BHI broth and incubated at 37 °C with shaking (120 rpm) for 8 hours. Cells in 20 mL culture were pelleted by centrifugation, 3,500g for 15 minutes, and then resuspended in 10 mL cold PBS, then cells were diluted in PBS to obtain the inoculum sizes of 1×10^5 or 1× 10^6 CFU/mL, based on the testing strain’s virulence. In all cases, the actual colony counts were determined by plating dilutions in at least 3 replicates onto MHBII agar plates followed by 24 hours’ incubation and colony counting.
For dermal infections, groups of 5 female ICR mice weighing 24 ± 4 g, provided by BioLasco Taiwan (under a Charles River Laboratories Technology Licensee), were used. Animals were acclimated for 3 days prior to use and were confirmed to be in good health. Prior to infection, animals were anesthetized with etomidate-lipuro emulsion (20 mg /10 mL) at 20 mg/kg by IV injection, and then the fur on the back was removed by an electric shaver, and the epidermal layer was disrupted with an abrasive paper according to the protocol developed by Kugelberg and colleagues. Mice were inoculated topically on the wound area with testing strain suspension, 5 μL/mouse. The target inoculation densities were 1×10^5 or 1× 10^6 CFU/mL, based on the corresponding strain’s virulence. Following infection, animals were housed separately. […] Test articles were administered topically (20 μL/mouse) twice daily. One no-treatment group was euthanized at 1 hour after infection for initial bacterial counts, and the other treatment groups were dosed twice daily with the test compounds and sacrificed either at 25 hours or at 73 hours postinfection. Animals were euthanized with CO2 asphyxiation and the infected skin, a 2 cm^2 area, was excised. The skin samples of the wound infection (around 2 cm^2 areas) were then homogenized in 1 mL PBS (pH 7.4) with a polytron homogenizer. A 0.1 mL aliquot of each homogenate was used for serial 10-fold dilutions and plated onto MHBII agar plates for bacterial enumeration. Statistical significance (P <0.05) was assessed with 1-way ANOVA followed by Dunnett’s method. A significant (P <0.05) decrease in the bacterial counts of the treated animals compared with the vehicle control group was considered significant antimicrobial activity.

[2] = target: T1, S. aureus topoisomerase IV (Staphylococcus aureus, UniProt P0C1S7); experiment: S. aureus topoisomerase IV gel-based assay; assay type: biochemical; settings: quadruplicates
T1 construct: purchased Inspiralis Ltd., Norwich, UK

[3] = test system: S. aureus ATCC 700699 VISA; experiment: Time-dependent killing; assay type: cell-based; settings: for Time-kill bacterial count: 10xMIC; for cell killing (bactericidal) activity: 10× MIC, S. aureus ATCC 700699 (VISA), in words; for Colony numbers: time-kill raw counts, Samples 1-3
Description: Time-dependent killing experiments were performed as previously. S. aureus ATCC 700699 VISA cells were inoculated to MHBII agar plates and grown overnight at 37 °C. Next, 3 independent stationer-phase starter cultures were grown at 37 °C, 250 rpm overnight, in 3 × 1 mL MHBII broth. Next, 100-fold diluted cultures were prepared from each in 20 mL fresh MHBII medium and grown at 37 °C, 250 rpm until early exponential phase (OD600 = 0.3–0.4; i.e., 5 × 10^5 cells/mL). […] Cells were treated with antibiotics in Erlenmeyer flasks at 37 °C, 150 rpm for 48 hours. […] Next, 50 μL from each dilution were plated on MHBII agar plates, and plates were incubated overnight at 37 °C to calculate CFU per mL.

[4] = Pharmacokinetics measurement in skin tissue; assay type: in vivo, mice; settings: for Drug concentration in mouse skin tissue (individual mice) / Drug concentration in mouse skin tissue, Mean: 73 h, 3 days twice-a-day topical 20 μL ointment containing 2% drug; for Drug concentration in mouse skin tissue, Mean: n = 3; for skin concentration as multiple of the MIC in wild-type S. aureus VISA: topical treatment, mouse skin
Description: Pharmacokinetics measurement of ULD1 and ULD2 in skin tissue was conducted parallelly with the mice dermal infection study. In all cases, skin tissue samples were collected at the termination and homogenized following the same method as homogenate preparation for bacterial enumeration. Before measurement, protein precipitation was performed by treating the samples with acetonitrile. Analytics were the performed by liquid chromatography coupled mass spectrometry (LC/MS/MS) on an AB SCIEX QTRAP mass spectrometer in electrospray, positive ions ionization mode, and with Multiple Reaction Monitoring scan mode. Samples were analyzed on a Phenomenex Luna 5u Phenyl-Hexyl 50 × 2.0 mm HPLC column in a mobile phase of A: acetonitrile/formic acid = 100/0.2 (v/v), and mobile phase of B: water / formic acid = 100/0.2 (v/v). The column’s temperature was set to 30 °C, the injection volumes were 10 μL, and measurement time was 5 minutes in all cases. Oxybutynin (0.01 ng/μL in acetonitrile) was used as an internal standard for the measurement. Finally, the concentration of the drug in tissue samples was calculated from the peak area ratio.

[5] = in vitro; settings: human
Description: Cytotoxicity of compounds on HepG2 and MCF-7 mammalian cell lines was determined by using a standard LDH assay. Briefly, HepG2 and MCF-7 cells were cultured in Eagle’s MEM medium (from Gibco) supplemented with 2 mM L-glutamine (Sigma), 100 U/mL penicillin (Sigma), and 100 μg/mL streptomycin (Sigma), and 10% FBS (Gibco) at 37 °C and under 5% CO2. Next, LDH assays were performed according to manufacturer instructions (Thermo Fisher Scientific, Massachusetts, USA). By using a CyQUANT LDH Cytotoxicity Assay Kit. Firstly, the cells were seeded in 96-well microtiter plates at 10^5 cells/mL (100 μL/well) and allowed to attach overnight. […] Lysis buffer (10 μL, Thermo Fisher Scientific) was then added to the maximal LDH activity control wells and incubated additional 45 minutes. The cell culture supernatant (50 μL) was then transferred to a new 96-well plate and mixed with 50 μL of the reaction mixture. After 30 minutes on room temperature, reactions were stopped with 50 μL of the Stop solution. Absorbance (490 nm and 680 nm) was measured with the automatic microplate reader Synergy 4 Hybrid Microplate Reader (BioTek, VT, USA). All experiments were performed in triplicates and repeated 3 times. Statistical significance (P < 0.05) was calculated with 2-tailed Welch’s t-test between treated groups and DMSO. The percentage of cytotoxicity was determined according to the following equation: %Cytotoxicity=(CompoundtreatedLDHactivity-SpontaneousLDHactivity/MaximumLDHactivity-SpontaneousLDHactivity)*100

[6] = test system: novobiocin-resistant S. aureus VISA ATCC 700699 mutants; experiment: MIC against novobiocin-resistant (novobiocin-adapted) strains; assay type: cell-based; settings: for MIC: Staphylococcus aureus
Description: MICs were determined using a standard serial broth microdilution technique according to the CLSI guidelines. Briefly, bacterial strains were inoculated onto MHBII agar plates and were grown overnight at 37 °C. Next, 3 individual colonies from each strain were inoculated into 1 mL MHBII medium and propagated at 37 °C, 250 rpm overnight. In the cases of Enterococcus and Streptococcus sp., cells were plated to BHI agar plates, and BHI broth was used to determine MICs. […] Following dilutions, each well was seeded with 5×10^4 bacterial cells. All measurements were performed in 3 parallel replicates and to avoid possible edge effects in microwell plates, side rows (A and H) were filled with sterile medium. Following inoculations, plates were covered with lids and wrapped in polyethylene plastic bags to minimize evaporation but allow for O2 transfer. Plates were incubated at 37 °C under continuous shaking at 150 rpm for 18 hours. After incubation, OD600 of each well was measured using a BioTek Synergy 2 microplate reader.

[7] = Staphylococcus aureus ECL 2963646 (VRSA)
[8] = Staphylococcus aureus Mu50 ATCC 700699 (VISA)
[9] = Staphylococcus aureus USA300 (MRSA)
[10] = WT S. aureus VISA ATCC 700699, read-out: MIC

T1 sequence (P0C1S7 whole entry): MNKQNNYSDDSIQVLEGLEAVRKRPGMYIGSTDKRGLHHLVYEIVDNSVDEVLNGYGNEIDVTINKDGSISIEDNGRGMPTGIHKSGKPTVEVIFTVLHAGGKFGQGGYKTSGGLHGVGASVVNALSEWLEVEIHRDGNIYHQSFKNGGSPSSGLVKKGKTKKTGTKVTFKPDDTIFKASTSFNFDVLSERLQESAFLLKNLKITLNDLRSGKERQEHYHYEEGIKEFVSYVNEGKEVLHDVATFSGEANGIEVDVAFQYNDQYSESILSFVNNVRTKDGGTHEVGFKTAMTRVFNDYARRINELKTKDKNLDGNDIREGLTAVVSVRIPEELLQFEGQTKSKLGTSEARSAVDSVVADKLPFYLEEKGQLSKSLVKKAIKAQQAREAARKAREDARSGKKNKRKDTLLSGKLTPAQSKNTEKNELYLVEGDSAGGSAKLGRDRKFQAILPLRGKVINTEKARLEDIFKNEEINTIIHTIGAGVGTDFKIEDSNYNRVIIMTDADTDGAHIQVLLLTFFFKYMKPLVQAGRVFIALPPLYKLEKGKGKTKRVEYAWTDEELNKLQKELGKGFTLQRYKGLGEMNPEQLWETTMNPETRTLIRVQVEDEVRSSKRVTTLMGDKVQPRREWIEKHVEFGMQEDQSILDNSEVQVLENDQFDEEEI
T1 sequence (P0C1U9 whole entry, further chain): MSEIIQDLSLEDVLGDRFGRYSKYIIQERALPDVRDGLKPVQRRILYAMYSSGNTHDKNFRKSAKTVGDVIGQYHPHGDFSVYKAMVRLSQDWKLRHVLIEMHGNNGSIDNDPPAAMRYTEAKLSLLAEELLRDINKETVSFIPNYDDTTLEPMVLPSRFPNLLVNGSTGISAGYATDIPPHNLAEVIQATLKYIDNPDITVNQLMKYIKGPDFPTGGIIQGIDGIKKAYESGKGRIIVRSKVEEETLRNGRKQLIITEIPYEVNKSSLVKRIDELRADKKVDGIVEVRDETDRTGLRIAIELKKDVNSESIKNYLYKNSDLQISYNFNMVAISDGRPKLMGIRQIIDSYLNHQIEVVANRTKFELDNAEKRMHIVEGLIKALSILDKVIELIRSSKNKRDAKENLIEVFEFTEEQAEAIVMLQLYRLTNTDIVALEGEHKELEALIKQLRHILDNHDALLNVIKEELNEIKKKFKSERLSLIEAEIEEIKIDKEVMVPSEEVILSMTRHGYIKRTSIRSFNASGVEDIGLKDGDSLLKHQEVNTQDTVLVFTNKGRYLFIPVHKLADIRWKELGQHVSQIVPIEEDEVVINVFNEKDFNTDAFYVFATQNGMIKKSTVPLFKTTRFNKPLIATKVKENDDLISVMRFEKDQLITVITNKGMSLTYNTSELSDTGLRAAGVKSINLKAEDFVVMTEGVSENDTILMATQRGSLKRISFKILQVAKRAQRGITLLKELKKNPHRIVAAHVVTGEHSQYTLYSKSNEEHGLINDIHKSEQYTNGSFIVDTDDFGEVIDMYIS

Row | SMILES | Log CFU/Skin [1, 7] | Log CFU/Skin [1, 8] | Log CFU/Skin [1, 9] | antibacterial activity after topical application [1] | IC50 [2] [nM] | Time-kill bacterial count ([3]; time 0 hour) | Time-kill bacterial count ([3]; time 3 hour) | Time-kill bacterial count ([3]; time 6 hour) | Time-kill bacterial count ([3]; time 12 hour) | Time-kill bacterial count ([3]; time 18 hour) | Time-kill bacterial count ([3]; time 24 hour) | Time-kill bacterial count ([3]; time 48 hour) | cell killing (bactericidal) activity [3] | Colony numbers ([3]; time 0 h, Dilution 100) | Colony numbers ([3]; time 3 h, Dilution 100) | Colony numbers ([3]; time 6 h, Dilution 100) | Colony numbers ([3]; time 18 h, Dilution 1) | Drug concentration in mouse skin tissue (individual mice) [4] | Drug concentration in mouse skin tissue, Mean [4] [ng/mL] | skin concentration as multiple of the MIC in wild-type S. aureus VISA [4] | also measured
1 | Cc1[nH]c(C(=O)Nc2nc3ccc(C(=O)O)cc3s2)c(Cl)c1Cl [ULD1] | 5.77 Log CFU/Skin and 5.81 Log CFU/Skin and 5.92 Log CFU/Skin and 6.59 Log CFU/Skin and 5.61 Log CFU/Skin | 5 Log CFU/Skin and 5.57 Log CFU/Skin and 5.65 Log CFU/Skin and 4.91 Log CFU/Skin and 5.98 Log CFU/Skin | 4.61 Log CFU/Skin and 3.68 Log CFU/Skin and 4.97 Log CFU/Skin and 3.75 Log CFU/Skin and 4.86 Log CFU/Skin | potent antibacterial activity | 9.3 ± 2.2 | 2.80E+05 | 9.80E+04 | 6.30E+04 | 4.90E+03 | 1.70E+03 | 8.50E+02 | 1.60E+02 | exceed that of fusidic acid | 145 and 132 and 137 | 54 and 53 and 40 | 38 and 20 and 36 | 83 and 63 and 113 | 8853 ng/mL and 14630 ng/mL and 6624 ng/mL | 10036 | up to 300 times the MIC | Colony numbers ([3]; time 12 h, Dilution 10): 20 and 23 and 31; Colony numbers ([3]; time 24 h, Dilution 0.5): 65 and 80 and 110; IC50 [5]: > 100000 nM; decrease in susceptibility compared with wild-type strain ([6]; 9 independently evolved novobiocin-resistant isolates): up to 6 fold; MIC [6, 10]: 0.04 µg/mL; MIC ([6]; novobiocin-adapted Evolved 1): 0.016 µg/mL; MIC ([6]; novobiocin-adapted Evolved 2): 0.125 µg/mL; MIC ([6]; novobiocin-adapted Evolved 3): 0.016 µg/mL; MIC ([6]; novobiocin-adapted Evolved 4): 0.25 µg/mL; MIC ([6]; novobiocin-adapted Evolved 5): 0.063 µg/mL; MIC ([6]; novobiocin-adapted Evolved 6): 0.063 µg/mL; MIC ([6]; novobiocin-adapted Evolved 7): 0.125 µg/mL; MIC ([6]; novobiocin-adapted Evolved 8): 0.125 µg/mL; MIC ([6]; novobiocin-adapted Evolved 9): 0.016 µg/mL
2 | Cc1[nH]c(C(=O)Nc2nc3c(OCc4ccccc4)cc(C(=O)O)cc3s2)c(Cl)c1Cl [ULD2] | 5.96 Log CFU/Skin and 5.93 Log CFU/Skin and 5.51 Log CFU/Skin and 5.91 Log CFU/Skin and 5.45 Log CFU/Skin | 4.76 Log CFU/Skin and 5.44 Log CFU/Skin and 5.93 Log CFU/Skin and 4.96 Log CFU/Skin and 5.73 Log CFU/Skin | 4.14 Log CFU/Skin and 4.81 Log CFU/Skin and 5.33 Log CFU/Skin and 6.64 Log CFU/Skin and 5.97 Log CFU/Skin | potent antibacterial activity | 2 ± 0.3 | 2.80E+05 | 9.90E+04 | 5.60E+04 | 7.00E+03 | 4.90E+02 | 1.90E+02 | 1.70E+01 | exceed that of fusidic acid | 145 and 132 and 137 | 56 and 39 and 53 | 28 and 24 and 32 | 31 and 22 and 20 | 4224 ng/mL and 6654 ng/mL and 10244 ng/mL | 7041 | up to 300 times the MIC | Colony numbers ([3]; time 48 h, Dilution 0.5): 1 and 2; IC50 [5]: > 100000 nM; cross-resistance of novobiocin-resistant isolates ([6]; 9 independently evolved novobiocin-resistant isolates, in words): no cross-resistance; MIC [6, 10]: 0.02 µg/mL; MIC ([6]; novobiocin-adapted Evolved 1): 0.016 µg/mL; MIC ([6]; novobiocin-adapted Evolved 2): 0.016 µg/mL; MIC ([6]; novobiocin-adapted Evolved 3): 0.016 µg/mL; MIC ([6]; novobiocin-adapted Evolved 4): 0.063 µg/mL; MIC ([6]; novobiocin-adapted Evolved 5): 0.031 µg/mL; MIC ([6]; novobiocin-adapted Evolved 6): 0.016 µg/mL; MIC ([6]; novobiocin-adapted Evolved 7): 0.016 µg/mL; MIC ([6]; novobiocin-adapted Evolved 8): 0.016 µg/mL; MIC ([6]; novobiocin-adapted Evolved 9): 0.016 µg/mL
